Patent US5859032A, “Pyridine derivative, anti-ulcer drug, and antibacterial drug” (priority 1996, dated 1999)

Experiments:
[1] = system: gastric acid secretion (pylorus-ligated, histamine-stimulated rats); test: VOL, TAO: Acid Secretion Inhibition Test In Vivo; design: species or system rat (male Crj:Donryu); conditions: rat, 100 mg/kg, oral; histamine 30 mg/kg s.c.
Procedure: VOL, TAO: Acid Secretion Inhibition Test In Vivo
Inhibitory effect on acid secretion in vivo is confirmed.
Male Crj:Donryu rats (7-week-old) were fasted overnight but allowed free access to water. In each group, 8 to 10 of these rats were used under urethane anesthesia (1.25 g/kg). […] 30 minutes later, the abdomen of each was incised and the pylorus was ligated. 30 minutes after the ligation, 30 mg/kg of histamine dissolved in physiological saline was subcutaneously administered and, 3 hours thereafter, the rat was sacrificed with carbon dioxide. Immediately thereafter, each stomach was removed and the gastric contents were collected and each volume was determined. The total acid output was determined by titration of the gastric juice with 0.1N NaOH.
With respect to the gastric juice volume (VOL) and the total acid output (TAO), the effects obtained when 100 mg/kg of the sample compound had been administered were expressed as their respective inhibitory rates (%) as follows:
each inhibitory rate (%)=(1-(value in sample group/value in control

[2] = system: isolated gastric fundic gland; test: CAP: Acid Secretion Inhibition Test In Vitro ([14C]-aminopyrine uptake test); type: cell-based, Japanese White rabbit; conditions: Oryctolagus cuniculus, 40 min, 10^-5 M, histamine 10^-5 M, 37° C., read-out: CAP: acid secretion inhibitory rate
Procedure: CAP: Acid Secretion Inhibition Test In Vitro
The acid secretion inhibitory activity in a cell level is studied. It can also be used for studying the mechanism of the effect. […]
ii-a) Preparation of isolated gastric fundus gland suspension
First, an isolated gastric fundic gland sample was prepared. Namely, a male Japanese White rabbit (2.5 to 3 kg) was anesthetized to death with Nembutal™ and then the abdomen was incised. Immediately thereafter, the stomach was removed and, after its pyloric and cardiac antrum were severed, incised along its greater curvature into two sheets. The gastric contents adhering to the mucosal surface was washed out with ice-cooled PBS (-) and then carefully washed therein. The gastric wall was spread on a cork board with its mucosal surface facing up and the feed and mucus thereon were completely removed with sterile gauze. The mucosa was separated therefrom by a spatula and then collected in ice-cooled PBS (-). After being washed twice with PBS (-), the mucosa was minced into 2-3 mm^3 pieces by scissors. These pieces were further washed twice with a nutrient solution. The nutrient solution comprises 132.4 mM of NaCl, 5.4 mM of KCl, 5 mM of Na2 HPO4. 12H2 O, 1 mM of NaH2 PO4. 2H2 O, 1.2 mM of MgSO4, 1 mM of CaCl 2, 25 mM of HEPES, 2 mg/ml of glucose, and 1 mg/ml of BSA. Into 70 ml of the nutrient solution containing 1 mg/ml of collagenase, minced mucosal pieces were dispersed and intensely stirred in a conical flask with a stirrer at 37° C. for 40 to 60 minutes. During this period, 100% O2 was sprayed on the nutrient solution surface and the pH was appropriately measured such that it was immediately adjusted to pH 7.4, when the value was therebelow, with a base. The nutrient solution was added to the reaction solution so as to attain the total amount of about 200 ml. After being filtered through a mesh, the suspension was divisionally introduced into 50 ml centrifuge tubes and left for 15 minutes such that gastric fundic gland was deposited. The supernatant was repeatedly removed by an aspirator, dispersed in the nutrient solution, and then left such that the gastric fundic gland was washed three times. At this time, without using a pipette, the suspension was alternately introduced into two centrifuge tubes so as to effect dispersion. The number of cells was counted under microscope and adjusted to 1.6×10^6 cells/ml. […]
ii-b) [^14 C]-aminopyrine uptake test
Then, [^14 C]-aminopyrine uptake test was performed. After an Eppendorf tube was weighed, 10 μl (final concentration: 10^-5 M) of histamine dissolved in the above-mentioned nutrient solution, 10 μl (final concentration: 10^-5 M) of the test compound dissolved in DMSO, and 10 μl (final concentration: 0.05 μCi/ml) of [^14 C]-aminopyrine diluted with the nutrient solution were introduced therein and then 970 μl of the isolated gastric fundic gland suspension prepared above was added thereto. Subsequently, this mixture was shaken at 37° C. for 40 minutes at 125 cycles/minute. After being centrifuged for 30 minutes, 200 μl of its supernatant was collected into a mini-vial, while the rest was removed by an aspirator. The gland pellet was completely dried as the tube with its lid being opened was kept for one night in a drying oven at 80° C. and then the lid was closed and the weight was determined at room temperature. Then 100 μl of 1N KOH was added thereto and the tube with its lid being closed was treated at 60° C. for 1 to 2 hours so as to dissolve the pellet. Then, the contents thereof were transferred to a mini-vial. Into the mini-vial containing the supernatant or gland pellet, 4 ml of Atomlite™ was added and then the radioactivity was measured by a liquid scintillation counter. Here, after the radioactivity of the gland pellet was corrected by using a sample in which 20 mM of NaSCN was added so as to cancel the hydrogen ion concentration gradient, the integration ratio of aminopyrine specifically trapped by the gland pellet was calculated. […]

gastric mucosa = test: PD: Gastric Mucosal Integrity Test; type: in vivo, rat (male CDj:SD); design: key: 5: Same as the control with no recognizable damage at all.; 4: Though a slight PD-decreasing tendency suggesting a slight possibility of mucosal damage is found, there is no problem.; 3: Though a weak decrease in PD and a possibility of a weak mucosal damage is recognized, there is no substantial problem.; 2: Medium degree of decrease in PD is found and a mucosal damage is recognized.; 1: Heavy degree of decrease in PD is found and a remarkable mucosal damage is recognized; conditions: rat, 100 mg/kg into chamber, 60 minutes
Procedure: PD: Gastric Mucosal Integrity Test
In this case, since the sample compound has a necrotizing effect, it is inappropriate as an anti-ulcer medicament.
Therefore, the gastric mucosal potential difference (PD), which reflects the integrity of the gastric mucosa, is measured so as to confirm that the sample compound has no damaging effect on gastric mucosa, which is toxicity at gastric mucosal level.
Male CDj:SD rats (7 to 8-week-old) were fasted overnight, but allowed free access to water, and then, under urethane anesthesia (1.25 g/kg, i.p.), fixed to a cork board on its back. The abdomen of each rat was incised, and a small incision was made in the forestomach. Then, the inside of the stomach was washed with physiological saline heated at 37° C. From the forestomach, along the greater curvature thereof, the stomach was incised without damaging blood vessels. After the height of the cork board was adjusted on a jack, the stomach was mounted on ex vivo chamber. The area of the gastric mucosa exposed to the inside of this chamber was 2.5 cm^2. The inside of the chamber was perfused with physiological saline warmed at 37° C. by micro tube pump. By using an agar bridge containing 3M KCl, the potential difference between the chamber and the abdominal cavity was measured by a PD meter. Here, the rectal temperature was measured to control the body temperature during the experiment. […] To a control, the vehicle was administered.
The change in PD during 60 minutes after the administration of 100 mg/kg of the sample compound was collectively studied and, with reference to the positive control, classified into 5 levels as follows:
5: Same as the control with no recognizable damage at all.
3: Though a weak decrease in PD and a possibility of a weak mucosal damage is recognized, there is no substantial problem.
2: Medium degree of decrease in PD is found and a mucosal damage is recognized.
1: Heavy degree of decrease in PD is found and a remarkable mucosal damage is recognized.

Row | Compound | TAO: total acid output inhibitory rate [1] | VOL: gastric juice volume inhibitory rate [1] | inhibition at 10 µM [2] | PD: change in gastric mucosal potential difference (5 levels) (gastric mucosa)
1 | CC(C)=CCC/C(C)=C/COc1ccc(C(=O)NCCc2ccccn2)cc1 [Example 1, 2-[2-(4-geranyloxybenzoylamino)ethyl]pyridine] | 8% | 4% | 97% | 5
2 | CC(C)=CCC/C(C)=C/COc1ccc(C(=O)NCCc2ccncc2)cc1 [Example 2, 4-[2-(4-geranyloxybenzoylamino)ethyl]pyridine] | 25% | 17% | 99% | 3
3 | CC(C)=CCC/C(C)=C/COc1ccc(C(=O)NCc2ccncc2)cc1 [Example 3, 4-(4-geranyloxybenzoylaminomethyl)pyridine] | – | – | 99% | 3
4 | CC(C)=CCC/C(C)=C/COc1ccc(C(=O)Nc2cccnc2)cc1 [Example 4, 3-(4-geranyloxybenzoylamino)pyridine] | – | – | 44% | 5
5 | CC(C)=CCOc1ccc(OCC=C(C)C)c(C(=O)NCCc2ccncc2)c1 [Example 6, 4-[2-(2,5-diprenyloxybenzoylamino)ethyl]pyridine] | – | – | 100% | 5
6 | CC(C)=CCC/C(C)=C/COc1ccc(C(=O)NCCNc2cccnc2)cc1 [Example 7, 3-[2-(4-geranyloxybenzoylamino)ethylamino]pyridine] | – | – | 100% | 3
7 | COc1ccc(NCCNC(=O)c2ccc(OC/C=C(\C)CCC=C(C)C)cc2)nc1 [Example 8, 2-[2-(4-geranyloxybenzoylamino)ethylamino]-5-methoxypyridine] | -7% | 7% | 97% | 5
8 | CC(C)=CCC/C(C)=C/COc1ccc(C(=O)NCCNc2cc(C)cc(C)n2)cc1 [Example 10, 2,4-dimethyl-6-[2-(4-geranyloxybenzoylamino)ethylamino]pyridine] | – | – | 101% | 3
9 | COc1ccc(SCCNC(=O)c2ccc(OC/C=C(\C)CCC=C(C)C)cc2)nc1 [Example 11, 2-[2-(4-geranyloxybenzoylamino)ethylthio]-5-methoxypyridine] | – | – | 55% | 4
10 | CC(C)=CCC/C(C)=C/COc1ccc(C(=O)NCC(=O)Nc2ccccn2)cc1 [Example 13, 2-[2-(4-geranyloxybenzoylamino)acetylamino]pyridine] | – | – | 31% | 5
